Experimental data reported in ChEMBL document CHEMBL1136163, “Conformationally-restricted analogues of efflux pump inhibitors that potentiate the activity of levofloxacin in Pseudomonas aeruginosa” (Bioorg Med Chem Lett, 2003).
≈ marks a conversion by molar mass, not a printed value. Where a SMILES comes first, the peptide text is derived from it. The star is where a group is joined. βNA = c1ccc2cc(N*)ccc2c1

Experiments:
Pseudomonas aeruginosa [1] = experiment: In vitro minimum concentration of the efflux pump inhibitor required to inhibit the growth of PAM 1723 a strain of Pseudomonas aeruginosa; assay type: functional
Pseudomonas aeruginosa [2] = experiment: In vitro minimum concentration of the efflux pump inhibitor required to reduce (potentiate) the MIC of fuoroquinolone levofloxacin 8-fold (LVFX); assay type: functional
[3] = In vivo minimum lethal dose causing lethality to >/=66% of the mice tested i.v.; assay type: ADME, organism-based; settings: mouse, iv
[4] = Clearance measured in rat; assay type: ADME, organism-based; settings: in vivo, read-out: CLfree (converted)
[5] = In vivo minimum lethal dose causing lethality to >/=66% of the mice tested i.p.; assay type: ADME, organism-based; settings: mouse, ip
[6] = In vivo toxicity in mice i.v.; assay type: organism-based; settings: mouse, iv

Compound	MIC (Pseudomonas aeruginosa [1]) [mg/L]	MPC (Pseudomonas aeruginosa [2]) [µg/mL]	MLD [3] [mg/kg]	clearance [4] [L/h/kg]	MLD [5] [mg/kg]	LD50 [6] [mg/kg]
NC[C@@H]1CN[C@@H](C(=O)N[C@H](CCc2ccccc2)C(=O)Nc2ccc3ncccc3c2)C1	> 512	10	> 100	2.9	–	–
CC(C)C[C@@H](NC(=O)[C@H](N)CCCN)C(=O)Nc1cnc2ccccc2c1	–	20	50	–	300	–
NC[C@@H]1CN[C@@H](C(=O)N[C@H](CCc2ccccc2)C(=O)Nc2cnc3ccccc3c2)C1	> 512	5	50	–	–	–
CN(C(=O)[C@@H](N)CCc1ccccc1)[C@@H](CCCN)CSc1nc2ccccc2s1	128 (≈ 289 µM)	5	25	–	–	–
C[C@H]1COc2c(N3CCN(C)CC3)c(F)cc3c(=O)c(C(=O)O)cn1c23.C[C@H]1COc2c(N3CCN(C)CC3)c(F)cc3c(=O)c(C(=O)O)cn1c23.O [LEVOFLOXACIN]	–	–	> 100	–	–	> 100
CC(C)(C)c1ccc2ncc(NC(=O)[C@H]3C[C@H](CN)CN3)cc2c1	128 (≈ 392 µM)	5	> 150	–	–	–
N=C(N)NCCC[C@H](NC(=O)[C@@H](N)Cc1ccccc1)C(=O)Nc1ccc2ccccc2c1 [PABETAN] (H-Phe-Arg-βNA)	> 512	10	< 25	–	–	< 25
NCCC[C@@H](N)C(=O)N[C@H](CCc1ccccc1)C(=O)Nc1cnc2ccccc2c1	> 512	10	< 25	1.7	200	< 25
CC(C)(C)c1ccc2ncc(NC(=O)CNC(=O)[C@H](N)CCCN)cc2c1	64 (≈ 172 µM)	5	35	–	–	–
NCCO[C@H]1CN[C@H](C(=O)N[C@H](CCc2ccccc2)C(=O)Nc2cnc3ccccc3c2)C1	> 512	10	70	–	–	–
C[C@H](N)C(=O)N[C@H](CCc1ccccc1)C(=O)Nc1cnc2ccccc2c1	–	>40	125	–	–	–
CN(C(=O)[C@@H](N)Cc1ccccc1)[C@@H](CCCN)C(=O)Nc1ccc2ccccc2c1	256 (≈ 612 µM)	5	< 25	–	–	–
